# In the SangsterLogP compilation:
# Assay: method code SF-AS, from DOI: 10.1248/cpb.22.2064
# Settings: pH 7.4
row,Compound,logD
1,Cc1c(N(C)C)c(=O)n(C2CCCCC2)c(=O)n1C,3.02
2,Cc1c(N(C)C)c(=O)[nH]c(=O)n1C1CCCCC1,2.53
3,Cc1c(N(C)C)c(=O)n(Cc2ccccc2)c(=O)n1C,2.47
4,Cc1c(NCC(C)C)c(=O)n(-c2ccccc2)c(=O)n1-c1ccccc1,2.4
5,Cc1c(N2CCCC2)c(=O)n(C)c(=O)n1C1CCCCC1,3.55
6,Cc1c(N2CCCC2)c(=O)n(C)c(=O)n1-c1ccccc1,2.68
7,Cc1c(N2CCCCC2)c(=O)n(C)c(=O)n1C1CCCCC1,3.68
8,Cc1c(N(C)C)c(=O)n(C)c(=O)n1C1CCCCC1,2.94
9,Cc1c(N2CCOCC2)c(=O)n(-c2ccccc2)c(=O)n1C1CCCCC1,2.37
10,Cc1c(N2CCOCC2)c(=O)n(-c2ccccc2)c(=O)n1-c1ccccc1,1.44
11,Cc1c(N(C)C)c(=O)n(C2CCCC2)c(=O)n1C,2.65
12,Cc1c(NCC(C)C)c(=O)n(-c2ccccc2)c(=O)n1C1CCCCC1,3.27
13,Cc1c(N2CCCCC2)c(=O)n(C)c(=O)n1-c1ccccc1,3.21
14,Cc1c(N2CCCCC2)c(=O)n(-c2ccccc2)c(=O)n1-c1ccccc1,3.24
